# According to patent US8293240B2, “Method of treating drug-resistant cancer” (The Regents of the University of Colorado, priority 2004, dated 2012):
# Test system: drug resistant L1210/DDP cells
# Test: cell-surface Fas expression by flow cytometry, L1210/DDP
# Type: cell-based
# Procedure: Cell Surface Staining. Non-permeabilized cells were stained with antibodies to the cell surface receptors Fas (CD95) (Pharmingen) or with antibodies to uncoupling proteins (anti-UCP2 antibody) (Alpha Diagnostic International). Antibodies for both the isotype control and actual stain were added to the cell suspension, mixed, and then placed on ice for and incubation of 25 minutes in the dark. Subsequently the cells were centrifuged at 300×g for 5 minutes and the supernatant removed. The cells were washed one time with 100 μL of PBS/2.5% FBS and then transferred into flow cyotmetric tubes containing 500 μL of PBS/2.5% FBS for analysis.
# Geometric Mean Fluorescence. When analyzing data on Cell Quest software, a geometric mean value will be given for each histogram plotted. Once the stained sample was plotted against the control (isotype or unstained), geometric mean fluorescence values were obtained for both histogram peaks. The stained control sample value was subtracted from sample to identify the actual fluorescence of the stained sample over that of the control.
# Drug sensitive L1210 cells and drug resistant L1210/DDP cells were cultured with etomoxir for 24 hours (Tx indicates treatment with etomoxir). The level of cell-surface Fas was determined using fluorochrome conjugated anti-Fas antibodies and flow cytometry. The Fas levels are measured relative to a control for staining artifacts. […]
smiles,measurement,setting,value
"CCOC(=O)C1(CCCCCCOc2ccc(Cl)cc2)CO1 (centres unmarked) [etomoxir, 2-(6-(4-chlorophenoxy)-hexyl)-oxirane-2-carboxylic acid ethyl ester]",cell-surface Fas expression,"L1210/DDP, cultured with etomoxir for 24 hours",significant increases in cell surface Fas
same,"cell surface Fas, combination with methotrexate","methotrexate-treated L1210 DDP, FIG. 8",promotes increases in cell surface Fas
